This is an account of results in US9464092B2, “Transient protection of normal cells during chemotherapy” (G1 Therapeutics, Inc., priority 2013, dated 2016).

In one data set the target is CDK6/CyclinD3 (Homo sapiens (Human), UniProt Q00534). The data set is described as follows: CDK6/CyclinD3 kinase assay (Nanosyn, Caliper microfluidic). To be noted: Table 3; read-out: CDK6/CycD3 IC50. The class given is biochemical.
A short description of data set [1]: Mouse pharmacokinetics (oral gavage / intravenous). The class given is in vivo, mice. The note with it: mouse.
The next data set deals with HSPCs (bone marrow). The data set is described as follows: HSPC proliferation in bone marrow by EdU incorporation after oral gavage. Format: in vivo, mice. The procedure:
Mice were then sacrificed at the indicated times (0, 12, 24, 36, or 48 hours following compound administration), and bone marrow was harvested (n=3 mice per time point), as previously described (Johnson et al. J. Clin. Invest. (2010) 120(7), 2528-2536). Four hours before the bone marrow was harvested, mice were treated with 100 μg of EdU by intraperitoneal injection (Invitrogen). Bone marrow mononuclear cells were harvested and immunophenotyped using previously described methods and percent EdU positive cells were then determined (Johnson et al. J. Clin. Invest. (2010) 120(7), 2528-2536). In brief, HSPCs were identified by expression of lineage markers (Lin-), Sca1 (S+), and c-Kit (K+).
Four hours before animals were sacrificed and the bone marrow was harvested, mice were treated with 100 μg of EdU by intraperitoneal injection. Three mice per group were sacrificed at 12 hours and the remaining three animals per group were sacrificed at 24 hours. Results are shown in FIG. 6A as the ratio of EdU positive cells for treated animals at 12 or 24 hour time points compared to control.
Further experiments were completed with Compound T examining dose response and longer periods of compound treatment. […] […].
Both compounds were administered at 150 mg/kg by oral gavage. One hour prior to harvesting bone marrow, EdU was IP injected to label cycling cells. Bone marrow was harvested at 12, 24, 36, and 48 hours after compound treatment and the percentage of EdU positive HSPC cells was determined at each time point.

In another data set the target is CDK2/CyclinE (Homo sapiens (Human), UniProt P24941). The data set is described as follows: CDK2/CyclinE kinase assay (Nanosyn, Caliper microfluidic). Format: biochemical. To be noted: for IC50: read-out: CDK2/CycE IC50.
Another data set concerns bone marrow progenitors. The data set is described as follows: Carboplatin-induced cytotoxicity in bone marrow (EdU). The class given is in vivo, FVB/n mice. To be noted: 150 mg/kg oral gavage plus 90 mg/kg carboplatin i.p., 24 hours. As for the experimental part:
To assess the effect of transient CDK4/6 inhibition by Compound GG on carboplatin-induced cytotoxicity in the bone marrow, FVB/n mice (n=3 per group) were treated with vehicle control, 90 mg/kg carboplatin by intraperitoneal injection, or 150 mg/kg Compound GG by oral gavage plus 90 mg/kg carboplatin by intraperitoneal injection. 24 hours after treatment bone marrow was harvested and the percent of cycling bone marrow progenitors was measured by EdU incorporation as explained earlier. […] EdU incorporation in control animals was normalized to 100% and compared to EdU incorporation for bone marrow from carboplatin treated animals or carboplatin and Compound GG treated animals.

In the next data set the target is CDK4/CyclinD1 (Homo sapiens (Human), UniProt P11802). The data set is described as follows: CDK4/CyclinD1 kinase assay (Nanosyn, Caliper microfluidic). Format: biochemical. The note with it: read-out: CDK4/CycD1 IC50.
Sequence of CDK4/CyclinD1 (P11802 whole entry, species assumed): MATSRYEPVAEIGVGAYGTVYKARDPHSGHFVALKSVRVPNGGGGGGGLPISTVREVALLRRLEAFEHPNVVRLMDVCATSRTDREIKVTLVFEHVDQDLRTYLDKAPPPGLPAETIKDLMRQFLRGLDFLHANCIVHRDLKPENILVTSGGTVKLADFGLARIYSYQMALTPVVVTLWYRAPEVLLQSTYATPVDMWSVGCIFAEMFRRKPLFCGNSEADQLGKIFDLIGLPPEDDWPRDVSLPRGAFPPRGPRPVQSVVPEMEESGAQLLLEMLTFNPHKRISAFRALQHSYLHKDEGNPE
Sequence of CDK4/CyclinD1 (P24385 whole entry partner, species assumed): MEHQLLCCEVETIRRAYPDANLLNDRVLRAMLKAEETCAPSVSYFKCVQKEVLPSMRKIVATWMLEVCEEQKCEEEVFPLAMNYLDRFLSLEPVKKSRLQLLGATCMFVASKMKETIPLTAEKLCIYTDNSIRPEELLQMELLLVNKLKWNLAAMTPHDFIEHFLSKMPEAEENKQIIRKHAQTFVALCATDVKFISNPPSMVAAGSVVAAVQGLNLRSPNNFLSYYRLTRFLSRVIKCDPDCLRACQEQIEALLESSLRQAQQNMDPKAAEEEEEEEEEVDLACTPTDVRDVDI
The next data set addresses CDK2/CyclinA (Homo sapiens (Human), UniProt P24941). The data set is described as follows: CDK2/CyclinA kinase assay (Nanosyn, Caliper microfluidic). Format: biochemical. To be noted: for IC50: read-out: CDK2/CycA IC50. Put shortly: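 Each compound was run as a 12-point single-replicate titration, with staurosporine as reference, using microfluidic (Caliper) separation of phosphorylated peptide.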

The test system of data set [2] is RB-negative SCLC cell lines (H69, H82, H209, H345, NCI417, or SHP-77). The data set is described as follows: EdU proliferation, RB-negative SCLC cell lines. The note with it: 24 hours.
Data set [3] deals with RB-intact, Cdk4/6-dependent cell line (WM2664 or tHS68). The data set is described as follows: EdU proliferation, RB-intact Cdk4/6-dependent cell line. To be noted: 24 hours.
For data set [4], the system named is HS68 cells (human fibroblast, Rb-positive). The data set is described as follows: Cellular wash-out experiment, HS68. Format: cell-based. The procedure:
EMBO J, 21(12)2936-2945 (2002) and Ruas et al. Mol Cell Biol, 27(12)-4273-4282 (2007)). […] On day 3, one set of treated cell samples were harvested in triplicate (0 Hour sample). Remaining cells were washed two times in PBS-CMF and returned to culture media lacking test compound. Sets of samples were harvested in triplicate at 24, 40, and 48 hours. Upon harvesting cells, samples were stained with propidium iodide staining solution and samples run on Dako Cyan Flow Cytometer. The fraction of cells in G0-G1 DNA cell cycle versus the fraction in S-phase DNA cell cycle was determined using FlowJo 7.2 0.2 analysis.

A short description of data set [5]: PD0332991 pharmacokinetics / HSPC arrest in humans. Format: in vivo. The procedure: When calculated half-life was longer than the duration of the experiment, the half-life was expressed as >the longest incubation time. The calculated half-life is also listed in parentheses. […] The timely resumption of cellular proliferation is necessary for tissue repair, and therefore an overly long period of arrest is undesirable in healthy cells such as HSPCs. The characteristics of a CDK4/6 inhibitor that dictate its arresting duration are its pharmacokinetic (PK) and enzymatic half-lives. Once initiated, a G1-arrest in vivo will be maintained as long as circulating compound remains at an inhibitory level, and as long as the compound engages the enzyme. […] […]. […] […]. These observations may explain the severe granulocytopenia seen with PD0332991 in the clinic.

Data set [6] relates to human renal proximal tubule epithelial cells (Rb-positive). The data set is described as follows: Cellular wash-out experiment, renal proximal tubule epithelial cells. Format: cell-based. The note with it: 300 nM, compared to compounds T, Q, GG, or U. The procedure: Alternatively, the same experiment was done using normal Renal Proximal Tubule Epithelial Cells (Rb-positive) obtained from American Type Culture Collection (ATCC, Manassas, Va.). Cells were grown in an incubator at 37° C. in a humidified atmosphere of 5% CO2 in Renal Epithelial Cell Basal Media (ATCC) supplemented with Renal Epithelial Cell Growth Kit (ATCC) in 37° C. humidified incubator.
Upon harvesting cells, samples were stained with propidium iodide staining solution and samples run on Dako Cyan Flow Cytometer. The fraction of cells in G0-G1 DNA cell cycle versus the fraction in S-phase DNA cell cycle was determined using FlowJo 7.2 0.2 analysis.

For data set [7] the following is noted: humans; cited from earlier work.
Data set [8] can be described thus: Metabolic stability in liver microsomes. The note with it: Sprague-Dawley (rat), liver microsomes, pH 7.4; each of the species tested (human, monkey, dog, rat, mouse), 1 uM. Format: in vitro ADME, human, dog, rat, monkey, and mouse. As for the experimental part:
Human, mouse, and dog liver microsomes were purchased from Xenotech, and Sprague-Dawley rat liver microsomes were prepared by Absorption Systems. The reaction mixture comprising 0.5 mg/mL of liver microsomes, 100 mM of potassium phosphate, pH 7.4, 5 mM of magnesium chloride, and 1 uM of test compound was prepared. The test compound was added into the reaction mixture at a final concentration of 1 uM. An aliquot of the reaction mixture (without cofactor) was incubated in shaking water bath at 37 deg. C. for 3 minutes. The control compound, testosterone, was run simultaneously with the test compound in a separate reaction. The reaction was initiated by the addition of cofactor (NADPH), and the mixture was then incubated in a shaking water bath at 37 deg. C. Aliquots (100 μL) were withdrawn at 0, 10, 20, 30, and 60 minutes for the test compound and 0, 10, 30, and 60 minutes for testosterone. […] Test compound samples were analyzed using the Orbitrap high resolution mass spectrometer to quantify the disappearance of parent test compound and detect the appearance of metabolites. […] Half-lives were calculated using GraphPad software, fitting to a single-phase exponential decay equation.
When calculated half-life was longer than the duration of the experiment, the half-life was expressed as >the longest incubation time. The calculated half-life is also listed in parentheses. […]
(Liver microsomes are a subcellular fraction often used to study metabolism.)

The conditions of data set [9]: Grade 3/4 neutropenia and leukopenia; cited from earlier work.
For data set [10] the following is noted: mice; cited from earlier work.
For data set [11], the system named is HSPC (LKS+) and myeloid progenitor cells (LKS-). The note with it: single oral dose 150 mg/kg, mice; cited from earlier work.

Where two headings read alike, the source gives them in different places.

Sequence of CDK6/CyclinD3 (Q00534 whole entry, species assumed): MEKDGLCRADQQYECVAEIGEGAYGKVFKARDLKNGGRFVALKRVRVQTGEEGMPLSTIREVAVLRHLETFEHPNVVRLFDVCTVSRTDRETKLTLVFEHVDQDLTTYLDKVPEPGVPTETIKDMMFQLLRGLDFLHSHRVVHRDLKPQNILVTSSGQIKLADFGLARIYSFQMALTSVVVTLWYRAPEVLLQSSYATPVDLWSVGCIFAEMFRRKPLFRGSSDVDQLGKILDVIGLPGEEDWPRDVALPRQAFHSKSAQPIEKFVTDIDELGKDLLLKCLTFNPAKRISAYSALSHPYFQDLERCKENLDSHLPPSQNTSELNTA
Sequence of CDK6/CyclinD3 (P30281 whole entry partner, species assumed): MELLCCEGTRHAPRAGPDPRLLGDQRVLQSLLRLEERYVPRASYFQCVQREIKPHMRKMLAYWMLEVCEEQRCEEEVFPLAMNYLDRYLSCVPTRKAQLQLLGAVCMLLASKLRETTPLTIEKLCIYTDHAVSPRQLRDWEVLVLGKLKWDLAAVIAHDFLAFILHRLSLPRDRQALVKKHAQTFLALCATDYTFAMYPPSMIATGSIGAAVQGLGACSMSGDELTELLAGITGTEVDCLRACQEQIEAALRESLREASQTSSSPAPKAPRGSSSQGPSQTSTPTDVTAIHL

With `CC(C)N1CCN(c2ccc(Nc3ncc4cc5n(c4n3)C3(CCCCC3)CNC5=O)nc2)CC1` [Compound GG, 2′-((5-(4-isopropylpiperazin-1-yl)pyridin-2-yl)amino)-7′,8′-dihydro-6′H-spiro[cyclohexane-1,9′-pyrazino[1′,2′:1,5]pyrrolo[2,3-d]pyrimidin]-6′-one], the IC50 on CDK6/CyclinD3 was 4.7 nM; at CDK2/CyclinE (Table 2), 3.58 µM; at CDK2/CyclinE (Table 3), 3.58 µM; on CDK4/CyclinD1 (Table 2) it was 1 nM; on CDK4/CyclinD1 (Table 3), 1.06 nM; at CDK2/CyclinA (Table 2) it was 1510 nM. The IC50 at CDK2/CyclinA (Table 3) was found to be 1510 nM. For the same compound, in [1], the F is recorded as 52%. Also, the half-life was 210 min in data set [1] (plasma, po, 30 mg/kg, 30 mg/kg oral gavage, read-out: t1/2 p.o. (converted)) and 180 to 300 min in data set [1] (plasma, po, 30 mg/kg, read-out: plasma half-life following oral administration). Besides, in data set [1] (plasma, po, 30 mg/kg, read-out: oral bioavailability (F (%))), the bioavailability – broadly, the share of a dose that reaches the circulation, judged against a reference dose that is usually intravenous – is 52 to 80%. For the same compound, in [1] (plasma, iv, 10 mg/kg i.v.), the area under the curve AUC(0-inf) (usually total exposure, with the tail of the curve extrapolated) turned out to be 1.1 µM·h. The compound further registered a clearance in data set [1] (plasma, iv, 10 mg/kg i.v.) of 82 mL/min/kg. In addition, in data set [1] (plasma, iv, 10 mg/kg i.v., read-out: Vss), the Vd is 7.5 L/kg. Besides, the AUC (as a rule, concentration integrated over time) in data set [1] (plasma, 30 mg/kg oral gavage) is 1.9 µM·h. Also, the peak level in [1] (plasma, 30 mg/kg oral gavage) (Cmax) was 1900 nM. Further, the time of peak concentration (Tmax) – broadly, the time at which the peak concentration occurs – in [1] (plasma, 30 mg/kg oral gavage) stood at 1 h. In addition, in the data set on HSPCs (bone marrow) (150 mg/kg oral gavage), the “EdU incorporation into HSPCs at 12 and 24 hours compared to control” value is “reduction in EdU incorporation at 12 hours which was starting to return to normal at 24 hours”. Also, the “G1-arrest of bone marrow stem cells (HSPC)” value with HSPCs (bone marrow) (oral gavage, mice) is “dose dependent, transient, and reversible G1-arrest”. Moreover, the “Fold Selectivity CDK2/CDK4” value at CDK2/CyclinE (CDK2/CycE IC50 divided by CDK4/CycD1 IC50) worked out at 3377. Besides, the “Fold Selectivity (CDK2/CycE/CDK4)” value on CDK2/CyclinE (Table 2) is recorded as 3377. Moreover, the “protection of cycling bone marrow progenitors (EdU)” value in the data set with bone marrow progenitors is “significant protection of bone marrow progenitors”. Besides, the “Fold Selectivity (CDK2/CycA/CDK4)” value on CDK2/CyclinA (Table 2) was found to be 1425. Further, the entries for the “effect on proliferation (EdU, percent of cells in S-phase)” value in data set [2] and in [3] were “does not affect the growth of the Rb-negative cell lines” and “inhibits the Rb-positive cell line (tHS68)”, respectively.
`CC(=O)c1c(C)c2cnc(Nc3ccc(N4CCNCC4)cn3)nc2n(C2CCCC2)c1=O` [PD0332991, 6-acetyl-8-cyclopentyl-5-methyl-2-(5-piperazin-1-yl-pyridin-2-ylammino)-8H-pyrido-[2,3-d]-pyrimidin-7-one]: in [4] (300 nM, HS68 cells), the “time post wash out for cells to return to normal baseline cell division” value is on record as “greater than 48 hours”. The “duration of cell cycle arrest in human cells after compound is removed (wash-out)” value in data set [4] (in vitro wash-out experiment) is given as “more than forty hours”. Besides, the “duration of cell cycle arrest of HSPC after a single administration” value in data set [5] is on record as “approximately one week”. In data set [6], the “return to baseline levels of cell division after wash out” value was “took significantly longer to return to baseline levels of cell division”. In addition, the PK half-life in [7] is 27 h. Also, in data set [8], the half-life at 1 uM is greater than 60 min. Also, the “effect on proliferation (EdU, percent of cells in S-phase)” value in data set [2] is given as “does not affect the growth of the Rb-negative small cell lung cancer cell lines”. Besides, in [9], the “patients requiring a dose interruption” value is recorded as 71% and the “patients requiring a dose reduction” value is 35%. For the same compound, in [3], the “effect on proliferation (EdU, percent of cells in S-phase)” value is “inhibits the Rb-positive cell line (WM2664)”. Further, in data set [10], the PK half-life was 6 h. In addition, in data set [11], the “duration of sustained reduction in HSPC and myeloid progenitor EdU incorporation” value is listed as “greater than 36 hours”; the “time post oral dosing at which HSPC and myeloid progenitor cells return to baseline cell division” value was 48 h.
